# Patent US7879347B2, “Dihydroxyphenyl compounds and glucoside compounds thereof” (KAO Corporation, priority 2001, dated 2011)
# Tests used:
# [1] = Anti-oxidation test (UV-induced peroxide formation); set-up: unit not given here; conditions: 0.005 g compound in 1 ml methyl linolate
# From the text: Comparative test on raspberry ketone was made in the same manner as above.
# [2] = test system: Free fatty cells from epididymis fatty tissues; experiment: Determination of lypolytic activity in free fatty cells; format: cell-based, Wister male rats; conditions: for degree of lypolysis promotion (%): 100 μg/ml test compound, 0.05 μg/ml norepinephrine, 37° C., 1 hour, fatty acids relative to control solution without compound (=100)
# Procedure: The cells were added to a Hank's balanced solution containing 0.05 μg/ml of bovine serum albumin, 0.05 μg/ml of norepinephrine and 100 μg/ml of the present compound to be tested, and then allowed to react at 37° C. for 1 hour. Liberated fatty acids were extracted and quantitated with a copper reagent and a color developing reagent. Lypolytic activity was calculated according to the following equation. Lypolytic activity(%)=[A/B]×100, wherein A: amount of fatty acids in a sample solution, and B: that in a control solution without present compound. Subcutaneous Fat Decomposition Test
# B16 melanoma cells = experiment: Melanogenesis inhibition test; format: cell-based; conditions: 72 hours; for Amount of melanin per cell (%): Theophylline containing medium, relative to blank
# Procedure: B16 melanoma cells were inoculated in a 12 wells-plastic plate at a concentration of 2×10^4/well on MEM (Minimum Essential Medium). After 24 hours, the medium was changed to a Theophylline containing medium to which 4-(3′,4′-dihydroxyphenyl)-butane-2-one was added in the concentrations shown in Table 6. The cells were cultured for 72 hours and then treated with 10% TCA and ethanol/diethylether(=1/1). After counting the number of the cells, the cells were dissolved in an aqueous 1 mol/l sodium hydroxide solution containing dimethylsulfoxide in a concentration of 10%. Optical density at 475 nm (OD475) of the solution thus obtained was measured.
Structure (SMILES),amount of peroxides formed by oxidation of methyl linolate ([1]; UVB 10 (J/cm^2)),amount of peroxides formed by oxidation of methyl linolate ([1]; UVB 30 (J/cm^2)),degree of lypolysis promotion (%) [2],Amount of melanin per cell (%) (B16 melanoma cells; concentration 1 μg/l),Amount of melanin per cell (%) (B16 melanoma cells; concentration 3 μg/l),Amount of melanin per cell (%) (B16 melanoma cells; concentration 10 μg/l),Amount of melanin per cell (%) (B16 melanoma cells; concentration 30 μg/l),numbers of the cells (B16 melanoma cells; concentration range of Table 6 (up to 30 μg/l)),lypolytic activity compared with raspberry ketone of Comparative Example 1 ([2]; comparison in words)
"CC(=O)CCc1ccc(O)cc1 [Raspberry ketone, reference compound]",30.2,42.5,142.0 +/− 6.8%,–,–,–,–,–,–
"CC(=O)CCc1ccc(O)c(O)c1 [4-(3′,4′-dihydroxyphenyl)-butane-2-one]",1.6,3.7,194.3 +/− 12.4%,94.7,77.2,62.7,2.2,no difference,significantly higher
